Results from paper PMC3905694, “Targeting Low-Druggability Bromodomains: Fragment Based Screening and Inhibitor Design against the BAZ2B Bromodomain” (Journal of Medicinal Chemistry, 2013).

Tests used:
BRD2-BD1 = molecular target: T1, BRD2-BD1 (Homo sapiens, UniProt P25440); experiment: AlphaScreen fragment screen; type: binding; conditions: fragment library screen
T1 construct: screened against the bromodomains of BRD2-BD1 and CREBBP

CREBBP = molecular target: T2, CREBBP (Homo sapiens, UniProt Q92793); experiment: AlphaScreen fragment screen; type: binding; conditions: fragment library screen
T2 construct: screened against the bromodomains of BRD2-BD1 and CREBBP
T2 sequence (Q92793 1085-1192 limits assumed): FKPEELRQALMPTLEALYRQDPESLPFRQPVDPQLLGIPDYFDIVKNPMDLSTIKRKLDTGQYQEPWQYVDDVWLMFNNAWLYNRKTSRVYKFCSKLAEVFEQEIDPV

[1] = Solubility (qualitative remarks); type: physicochemical; conditions: in words
BAZ2B bromodomain [2] = molecular target: T3, BAZ2B bromodomain (Homo sapiens, UniProt Q9UIF8); experiment: Direct ITC titrations; type: binding; set-up: successful targeting of the challenging BAZ2B bromodomain; made in house; host or cells: E. coli BL21(DE3); conditions: in words
T3 sequence (Q9UIF8 2060-2164 limits assumed): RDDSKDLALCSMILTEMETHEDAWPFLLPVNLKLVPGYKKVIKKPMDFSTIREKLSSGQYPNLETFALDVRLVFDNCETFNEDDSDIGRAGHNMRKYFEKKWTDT

BAZ2B bromodomain [3] = molecular target: T3, BAZ2B bromodomain; experiment: AlphaLISA competitive peptide displacement (antipentahis acceptor beads); conditions: in words

T1 sequence (P25440 74-180 limits assumed): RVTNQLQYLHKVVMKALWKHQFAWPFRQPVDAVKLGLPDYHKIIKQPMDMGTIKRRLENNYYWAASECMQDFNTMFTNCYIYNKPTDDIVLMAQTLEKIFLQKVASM

hit in fragment screen (BRD2-BD1)	hit in fragment screen (CREBBP)	solubility [1]	Compound	further results
hits	hits		CNC(=O)c1cc(C)n(C)n1 [Compound 5]	
hits	hits	poor solubility	CC(=O)N1CCc2[nH]c3ccc(Cl)cc3c2C1 [Compound 6]	
			CC(=S)N1CCc2[nH]c3ccc(Cl)cc3c2C1 [Compound 38]	binding to the protein (BAZ2B bromodomain [2]): Neither of these bound
			NC(=S)N1CCc2[nH]c3ccc(Cl)cc3c2C1 [Compound 39]	binding to the protein (BAZ2B bromodomain [3]): Neither of these bound
		improved solubility	CNC(=O)N1CCc2[nH]c3ccc(Cl)cc3c2C1 [Compound 40]	
